Laboratory results published in ChEMBL document CHEMBL1138504, “Lipophilicity of basic drugs measured by hydrophilic interaction chromatography” (J Med Chem, 2009).

Legend:
[1] = buffer, pH 2
[2] = buffer, pH 2; remark: listed apart in the source
physchem [3] = experiment: physchem
physchem [4] = details: octanol/water
[5] = octanol/water

Row | SMILES | log K [1] | log K [2] | pKa (physchem [3]) | logP (physchem [4]) | logPc [5]
1 | CN(C)Cc1ccccc1 | -0.23 | 0.43 | 9.02 | 1.91 | –
2 | C=CCc1ccccc1OCC(O)CNC(C)C (stereo unspecified) [ALPRENOLOL] | -0.36 | 2.02 | – | – | 0.25
3 | CN1CCc2cccc3c2[C@H]1Cc1ccc(O)c(O)c1-3 [APOMORPHINE] | 0.33 | 2.74 | – | 2.49 | –
4 | CC(C)NCC(O)COc1ccc(COCCOC(C)C)cc1 (stereo unspecified) [BISOPROLOL] | -0.41 | 1.17 | – | – | -1.22
5 | CCCCN [BUTYLAMINE] | 0.29 | 0.756 | 10.8 | – | –
6 | CC(C)NCC(O)COc1cccc2[nH]c3ccccc3c12 (stereo unspecified) [CARAZOLOL] | -0.01 | 2.97 | 9.52 | – | 0.77
7 | COc1ccccc1OCCNCC(O)COc1cccc2[nH]c3ccccc3c12 (stereo unspecified) [CARVEDILOL] | -0.2 | 3.1 | 7.97 | – | 1.92
8 | Cc1cccc(C)c1NC(=O)C1CCCCN1C (stereo unspecified) [MEPIVACAINE] | -0.18 | 0.85 | 7.6 | – | –
9 | CC([C@H](O)c1ccccc1)N(C)C (stereo partly specified) [METHYLEPHEDRINE] | -0.14 | 0.64 | 9 | 1.55 | –
10 | CC(=O)Oc1c(C)cc(OCC(O)CNC(C)C)c(C)c1C (stereo unspecified) [METIPRANOLOL] | -0.5 | 1.57 | 9.54 | – | -0.26
11 | COCCc1ccc(OCC(O)CNC(C)C)cc1 (stereo unspecified) [METOPROLOL] | -0.27 | 1.1 | – | – | -1.1
12 | NCCO [MONOETHANOLAMINE] | 1.1 | -0.54 | 0.92 | – | –
13 | C1COCCN1 [MORPHOLINE] | 0.48 | -0.27 | – | – | –
14 | CC(=O)Oc1cc(C(C)C)c(OCCN(C)C)cc1C [MOXISYLYTE] | -0.86 | 1.53 | 8.72 | – | –
15 | CC(C)(C)NCC(O)COc1cccc2c1CC(O)C(O)C2 (stereo unspecified) [NADOLOL] | 0.5 | 0.59 | – | 0.81 | –
16 | CN1CCC[C@H]1c1cccnc1 [NICOTINE] | 0.14 | -0.02 | 3.4 | 1.34 | –
17 | NCC(O)c1ccc(O)cc1 (stereo unspecified) [OCTOPAMINE] | 1.15 | 0.44 | 8.81 | – | –
18 | C=CCOc1ccccc1OCC(O)CNC(C)C (stereo unspecified) [OXPRENOLOL] | -0.34 | 1.43 | 9.57 | – | -0.13
19 | CC(C)(C)NC[C@H](O)COc1ccccc1C1CCCC1 [PENBUTOLOL] | -0.51 | 3.08 | 9.92 | 4.62 | 1.32
20 | CC(C)NCC(O)COc1cccc2[nH]ccc12 (stereo unspecified) [PINDOLOL] | 0.08 | 1.63 | – | – | -1.32
21 | CCCNC(C)C(=O)Nc1ccccc1C (stereo unspecified) [PRILOCAINE] | -0.17 | 0.93 | 7.8 | – | –
22 | CCN(CC)CCOC(=O)c1ccc(N)cc1 [PROCAINE] | -0.26 | 1.05 | 9 | – | –
23 | CC(C)NCC(O)COc1cccc2ccccc12 (stereo unspecified) [PROPRANOLOL] | -0.19 | 2.71 | – | – | –
24 | C1COC(NC(C2CC2)C2CC2)=N1 [RILMENIDINE] | -0.41 | 0.88 | 9.22 | 1.7 | –
25 | NCCc1c[nH]c2ccc(O)cc12 [SEROTONIN] | 1.15 | 1.19 | – | – | –
26 | O=C1C[C@@H]2OCC=C3CN4CC[C@]56c7ccccc7N1[C@H]5[C@H]2[C@H]3C[C@H]46 [STRYCHNINE] | 0.06 | 1.18 | – | – | –
27 | CC(C)(C)NC[C@H](O)COc1nsnc1N1CCOCC1 [TIMOLOL] | 0.08 | 0.9 | 9.53 | 2.12 | -0.94
28 | COC(=O)[C@@H](N)Cc1ccc(O)cc1 [TYROSINE METHYL ESTER] | 0.57 | 0.26 | – | – | –
